In patent publication US9833439B2, “ERK inhibitors for use in treating spinal muscular atrophy” (UNIVERSITE PARIS DESCARTES, priority 2011, dated 2017):

Assays:
SMN transcripts = conditions: very severe SMA-like mice; splicing pattern not modified; cited from earlier work
[1] = system: SMN2 promoter CRE sites 1 and 2; experiment: ChIP of Phospho-Elk-1 and Phospho-CREB on SMN2 promoter CRE sites in ventral lumbar spinal cord; assay type: in vivo, mice; conditions: SMA spinal cords, intrathecal NMDA
From the text: The knockout-transgenic SMA-like mice (Smn^−/−, SMN2^+/+) were purchased from the Jackson Laboratory (Bar Harbor, Me.) and genotyped as previously described^15. Vehicle-treated group, NMDA-treated group, U0126-treated group and AZD6244-treated group of type 1 SMA-like mice were randomly constituted in a blind systematic manner to minimize bias. The control mice were heterozygous knock-out for Smn with the human SMN2 transgene (Smn^−/+, to SMN2^+/+).
In order to evaluate phospho-Elk-1 and phospho-CREB role on Smn2 promoter, P1 neonatal control and SMA-like mice, were either injected intrathecally with 5 pmol of N-methyl-D-aspartic Acid 100 μM (NMDA, Sigma, Saint Quentin Fallavier, France) in 0.5 μl/g of 0.9% NaCl dyed in blue Evans per gram. […]
Ventral lumbar Spinal Cord samples were chopped into small pieces with a scalpel and were fixed for 15 min with 1% formaldehyde. […] Lysates were cleared by centrifugation and DNA concentration was determined using a nanodrop spectrophotometer. […]
Quantitative real time PCR was performed with standard protocols using SYBR®Green ROX Mix (ABgene, Courtaboeuf, France) as a fluorescent detection dye in ABI PRISM® 7000 in a final volume of 10 μl which also contains 300 nM of primers (Operon, Cologne, Germany)
The relative amounts of DNA in samples were determined on the basis of the threshold cycle for each PCR product (Ct).

AKT = conditions: SMA mice, oral treatment
SMN protein = assay type: in vivo, mice; conditions: oral treatment
SMA-like mice [2] = experiment: Life span of severe SMA-like mice; assay type: in vivo; conditions: oral treatment
SMA-like mice [3] = experiment: Body weight of SMA-like mice; assay type: in vivo; conditions: oral treatment
Procedure: The knockout-transgenic SMA-like mice (Smn^−/−, SMN2^+/+) were purchased from the Jackson Laboratory (Bar Harbor, Me.) and genotyped as previously described^15. […] The control mice were heterozygous knock-out for Smn with the human SMN2 transgene (Smn^−/+, to SMN2^+/+). […] These mice were compared to control and SMA-like mice either injected from P1 with 0.5 μl/g of 0.9% NaCl 1% DMSO dyed in blue Evans or orally treated with 2 μl/g of 0.9% NaCl 1% DMSO. Body weight and life span recordings were performed every day until the death of the animal. The animals were considered as dead when mice were no longer able to stand up 20 sec after having been placed on their sides.

Compound	total amount of SMN transcripts in the SMA spinal cord (SMN transcripts)	ratio of CREB and Elk-1 binding on the CRE sites [1]	AKT activation (AKT)	SMN expression in the spinal cord of SMA mice (SMN protein)	life span of SMA mice (SMA-like mice [2])	body weight (SMA-like mice [3])
CN[C@H](CC(=O)O)C(=O)O [NMDA, N-methyl-D-aspartic Acid]	increased	completely reversed				
Cn1cnc2c(F)c(Nc3ccc(Br)cc3Cl)c(C(=O)NOCCO)cc21 [Selumetinib, 6-(4-bromo-2-chloroanilino)-7-fluoro-N-(2-hydroxyethoxy)-3-methylbenzimidazole-5-carboxamide]			activation	activation	remarkable increase	progressive gain
